Where two headings read alike, the source gives them in different places.
Tests used:
Assay type in all cases: binding
[1] = biological target: T1, HeLa cell extract proteins (Homo sapiens, UniProt Q6YN16)
T1 construct: endogenous in cells; host or cells: HeLa cell extract
T1 sequence (Q6YN16 1-418): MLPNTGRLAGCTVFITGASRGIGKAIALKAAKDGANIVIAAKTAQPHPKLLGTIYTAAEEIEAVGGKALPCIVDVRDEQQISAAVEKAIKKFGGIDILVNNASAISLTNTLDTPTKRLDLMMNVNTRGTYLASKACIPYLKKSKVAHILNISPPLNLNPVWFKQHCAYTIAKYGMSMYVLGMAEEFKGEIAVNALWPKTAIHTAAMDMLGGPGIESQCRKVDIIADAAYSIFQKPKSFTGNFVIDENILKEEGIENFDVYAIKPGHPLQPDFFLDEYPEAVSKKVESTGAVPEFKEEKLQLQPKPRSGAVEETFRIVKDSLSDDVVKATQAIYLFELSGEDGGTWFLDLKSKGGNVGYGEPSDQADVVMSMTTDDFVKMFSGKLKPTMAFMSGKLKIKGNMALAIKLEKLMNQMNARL

[2] = biological target: T2, HeLa cell extract proteins (Homo sapiens, UniProt Q96KA5)
T2 construct: endogenous in cells; host or cells: HeLa cell extract
T2 sequence (Q96KA5 1-538): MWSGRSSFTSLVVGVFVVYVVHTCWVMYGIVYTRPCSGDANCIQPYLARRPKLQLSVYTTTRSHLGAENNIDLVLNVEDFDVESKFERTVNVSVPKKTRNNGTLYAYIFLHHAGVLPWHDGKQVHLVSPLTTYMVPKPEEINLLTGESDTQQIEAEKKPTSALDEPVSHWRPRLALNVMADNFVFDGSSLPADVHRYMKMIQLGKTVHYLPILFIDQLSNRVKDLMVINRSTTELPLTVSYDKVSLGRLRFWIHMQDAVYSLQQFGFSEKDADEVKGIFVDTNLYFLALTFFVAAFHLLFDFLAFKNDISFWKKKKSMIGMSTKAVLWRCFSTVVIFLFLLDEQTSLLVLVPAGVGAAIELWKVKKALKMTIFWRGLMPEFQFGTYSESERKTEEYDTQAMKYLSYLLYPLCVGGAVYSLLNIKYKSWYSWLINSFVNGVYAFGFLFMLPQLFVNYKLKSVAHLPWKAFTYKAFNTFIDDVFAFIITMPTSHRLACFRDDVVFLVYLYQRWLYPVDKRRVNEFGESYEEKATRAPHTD

[3] = biological target: T3, HeLa cell extract proteins (Homo sapiens, UniProt Q9Y230)
T3 construct: endogenous in cells; host or cells: HeLa cell extract

[4] = biological target: T4, HeLa cell extract proteins (Homo sapiens, UniProt P00491)
T4 construct: endogenous in cells; host or cells: HeLa cell extract
T4 sequence (P00491 1-289): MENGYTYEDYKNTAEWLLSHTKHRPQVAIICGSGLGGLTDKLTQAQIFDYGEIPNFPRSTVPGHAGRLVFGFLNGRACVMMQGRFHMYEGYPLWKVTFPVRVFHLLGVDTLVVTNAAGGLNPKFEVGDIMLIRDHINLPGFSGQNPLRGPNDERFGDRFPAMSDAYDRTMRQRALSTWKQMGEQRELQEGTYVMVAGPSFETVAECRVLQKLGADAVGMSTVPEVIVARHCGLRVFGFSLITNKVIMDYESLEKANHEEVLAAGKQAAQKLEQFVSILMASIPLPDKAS

[5] = biological target: T5, HeLa cell extract proteins (Homo sapiens, UniProt O00743)
T5 construct: endogenous in cells; host or cells: HeLa cell extract
T5 sequence (O00743 1-305): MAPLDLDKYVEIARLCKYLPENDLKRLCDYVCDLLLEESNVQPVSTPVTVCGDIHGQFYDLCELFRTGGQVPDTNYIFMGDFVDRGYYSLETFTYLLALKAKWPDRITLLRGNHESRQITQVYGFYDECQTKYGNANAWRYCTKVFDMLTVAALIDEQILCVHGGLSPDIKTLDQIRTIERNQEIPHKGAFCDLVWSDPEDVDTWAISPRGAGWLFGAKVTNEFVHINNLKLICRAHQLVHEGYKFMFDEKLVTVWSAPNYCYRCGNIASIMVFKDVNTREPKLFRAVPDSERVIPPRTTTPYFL

[6] = biological target: T6, HeLa cell extract proteins (Homo sapiens, UniProt Q15392)
T6 construct: endogenous in cells; host or cells: HeLa cell extract
T6 sequence (Q15392 23-516): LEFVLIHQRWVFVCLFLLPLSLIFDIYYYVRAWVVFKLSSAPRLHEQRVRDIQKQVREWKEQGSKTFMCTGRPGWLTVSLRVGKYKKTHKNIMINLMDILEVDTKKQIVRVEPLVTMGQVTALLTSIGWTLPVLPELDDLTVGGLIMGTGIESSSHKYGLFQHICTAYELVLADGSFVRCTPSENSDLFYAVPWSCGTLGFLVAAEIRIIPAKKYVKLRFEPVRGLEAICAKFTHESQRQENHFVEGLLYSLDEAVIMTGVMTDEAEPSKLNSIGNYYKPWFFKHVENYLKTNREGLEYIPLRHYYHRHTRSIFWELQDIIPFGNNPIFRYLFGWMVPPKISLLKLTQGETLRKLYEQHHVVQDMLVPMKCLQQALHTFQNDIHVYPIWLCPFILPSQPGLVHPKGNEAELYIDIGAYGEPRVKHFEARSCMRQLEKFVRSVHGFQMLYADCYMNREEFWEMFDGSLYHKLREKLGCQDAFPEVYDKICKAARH

[7] = biological target: T7, HeLa cell extract proteins (Homo sapiens, UniProt P27824)
T7 construct: endogenous in cells; host or cells: HeLa cell extract
T7 sequence (P27824 21-592): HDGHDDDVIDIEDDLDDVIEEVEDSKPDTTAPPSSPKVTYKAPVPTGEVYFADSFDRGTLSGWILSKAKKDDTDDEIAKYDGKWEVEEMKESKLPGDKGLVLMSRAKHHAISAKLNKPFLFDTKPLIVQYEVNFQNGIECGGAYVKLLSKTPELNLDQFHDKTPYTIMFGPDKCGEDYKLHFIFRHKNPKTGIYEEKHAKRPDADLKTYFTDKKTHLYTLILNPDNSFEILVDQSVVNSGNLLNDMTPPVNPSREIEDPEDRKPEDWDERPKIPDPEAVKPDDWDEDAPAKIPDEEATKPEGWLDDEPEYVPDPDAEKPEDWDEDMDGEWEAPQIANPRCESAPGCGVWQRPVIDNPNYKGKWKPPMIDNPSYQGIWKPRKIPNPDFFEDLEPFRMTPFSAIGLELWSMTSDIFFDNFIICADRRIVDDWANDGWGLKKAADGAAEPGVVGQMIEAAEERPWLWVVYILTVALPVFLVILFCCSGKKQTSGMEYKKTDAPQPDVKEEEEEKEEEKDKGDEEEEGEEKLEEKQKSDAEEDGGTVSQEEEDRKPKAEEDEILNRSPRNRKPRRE

[8] = HeLa, protein DHCR24 (24-DEHYDROC[…] PRECURSOR)

T3 sequence (Q9Y230 whole entry): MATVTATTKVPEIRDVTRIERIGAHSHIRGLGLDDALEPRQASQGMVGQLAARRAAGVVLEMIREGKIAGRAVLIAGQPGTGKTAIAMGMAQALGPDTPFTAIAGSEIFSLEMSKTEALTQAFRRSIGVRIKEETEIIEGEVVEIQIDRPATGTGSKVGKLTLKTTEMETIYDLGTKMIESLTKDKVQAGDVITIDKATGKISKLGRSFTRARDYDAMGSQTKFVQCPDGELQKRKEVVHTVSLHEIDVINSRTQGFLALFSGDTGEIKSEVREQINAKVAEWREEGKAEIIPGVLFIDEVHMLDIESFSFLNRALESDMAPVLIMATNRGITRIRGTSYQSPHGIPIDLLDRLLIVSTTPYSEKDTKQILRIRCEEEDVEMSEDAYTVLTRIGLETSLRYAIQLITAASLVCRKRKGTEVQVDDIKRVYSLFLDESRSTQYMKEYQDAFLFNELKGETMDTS

| SMILES | fold changes relative to vehicle control ([1]; HeLa, protein HSDL2) | fold changes relative to vehicle control ([2]; protein CLPTM1L, HeLa) | fold changes relative to vehicle control ([3]; protein RUVBL2, HeLa) | fold changes relative to vehicle control ([4]; protein NP, HeLa) | fold changes relative to vehicle control ([5]; HeLa, protein PPP6C) | fold changes relative to vehicle control [6, 8] | fold changes relative to vehicle control ([7]; HeLa, captured protein CANX) | fold changes relative to vehicle control [1] | fold changes relative to vehicle control [2] | fold changes relative to vehicle control [3] | fold changes relative to vehicle control [4] | fold changes relative to vehicle control [5] | fold changes relative to vehicle control [6] | fold changes relative to vehicle control [7] | fold changes relative to vehicle control ([1]; protein HSDL2, HeLa) | fold changes relative to vehicle control ([2]; captured protein CLPTM1L, HeLa) | fold changes relative to vehicle control ([6]; protein DHCR24, HeLa) | fold changes relative to vehicle control ([7]; protein CANX, HeLa) | fold changes relative to vehicle control ([6]; HeLa, protein DHCR24 (24-DEHYDROCHOLESTEROL REDUCTASE PRECURSOR)) |
| --- | --- | --- | --- | --- | --- | --- | --- | --- | --- | --- | --- | --- | --- | --- | --- | --- | --- | --- | --- |
| Nc1nc2c(c(=O)[nH]1)N(C=O)C(CNc1ccc(C(=O)N[C@@H](CCC(=O)O)C(=O)O)cc1)CN2 (stereo partly shown) [LEU, leucovorin] | 0.96 | 0.77 | 0.85 | 0.9 | 0.99 | 1.13 | 1.09 |  |  |  |  |  |  |  |  |  |  |  |  |
| Nc1nc2[nH]cc(CCc3ccc(C(=O)N[C@@H](CCC(=O)O)C(=O)O)cc3)c2c(=O)[nH]1 [PTX, pemetrexed] |  |  |  |  |  |  |  | 0.96 | 0.91 | 0.87 | 0.89 | 0.94 | 1.05 | 1.25 |  |  |  |  |  |
| CCCCCCOc1ccc(Cc2cnc(N)nc2N)cc1 [compound 1] |  |  | 1.03 | 1.16 | 1.01 |  |  |  |  |  |  |  |  |  | 1.11 | 0.84 | 1.03 | 1.3 |  |
| CCCCCCOc1cccc(Cc2cnc(N)nc2N)c1 [compound 2] |  |  | 1.34 | 1.4 | 0.99 |  |  |  |  |  |  |  |  |  | 1.23 | 1.05 | 0.83 | 2.38 |  |
| Nc1nc2cccc(-c3ccccc3)c2n1Cc1ccc(Cl)c(Cl)c1 [compound 3] |  |  | 1.02 | 0.96 | 1.04 |  |  |  |  |  |  |  |  |  | 0.96 | 1.14 | 1.02 | 0.92 |  |
| NCCOCCOCC(=O)Nc1nc2ncc(CNc3ccc(C(=O)NC(CCC(=O)O)C(=O)O)cc3)nc2c(=O)[nH]1 (stereo not shown) [compound 6] | 1.04 | 1.01 | 1.06 | 1.08 | 1.05 |  | 1.35 |  |  |  |  |  |  |  |  |  |  |  | 0.88 |
| NCCCNc1ccc(C(=O)NC(CCC(=O)O)C(=O)O)cc1 (stereo not shown) [compound 7] | 1.02 | 0.9 | 0.95 | 0.89 | 1.04 | 1.03 | 1.06 |  |  |  |  |  |  |  |  |  |  |  |  |
